Source: US20240238242A1, “EGCG buccal tablet and use thereof” (priority 2023, published 2024)
“And” between values parts separate entries of the source, which are not always exact repeats. Identical values can stand only once.

Tested on: Coronavirus (hCoV-229E)
Experiment: Inactivation efficiency against coronavirus hCoV-229E strain (residual TCID50 on Huh-7 cells)
Assay type: cell-based
Conditions: for CPE test (virus replication in cell wells): wells 1-10; for average inactivation efficiency against virus: three experiments; for CPE test (virus replication in the cell wells): 1 mM EGCG + virus, co-incubated 5 minute

O=C(O[C@@H]1Cc2c(O)cc(O)cc2O[C@@H]1c1cc(O)c(O)c(O)c1)c1cc(O)c(O)c(O)c1 [EGCG, Epigallocatechin gallate]
36.90% and 20.57%: inactivation efficiency against the virus (0.2 mM EGCG, hCoV-229E virus, 1 minute, single experiment)
13.71%: average inactivation efficiency against virus (0.2 mM EGCG, hCoV-229E virus, 5 minutes)
+: CPE test (virus replication in cell wells) (0.2 mM EGCG + virus, hCoV-229E co-incubated 1 minute, third experiment, dilution factor 10^1) | CPE test (virus replication in cell wells) (0.2 mM EGCG + virus, hCoV-229E co-incubated 1 minute, third experiment, dilution factor 10^2) | CPE test (virus replication in cell wells) (0.2 mM EGCG + virus, hCoV-229E co-incubated 1 minute, third experiment, dilution factor 10^3) | CPE test (virus replication in cell wells) (0.2 mM EGCG + virus, hCoV-229E co-incubated 1 minute, third experiment, dilution factor 10^4) | CPE test (virus replication in cell wells) (1 mM EGCG + hCoV-229E virus, co-incubated 1 minute, first experiment, dilution factor 10^1) | CPE test (virus replication in cell wells) (1 mM EGCG + hCoV-229E virus, co-incubated 1 minute, first experiment, dilution factor 10^2) | CPE test (virus replication in cell wells) (1 mM EGCG + hCoV-229E virus, co-incubated 1 minute, first experiment, dilution factor 10^3) | CPE test (virus replication in cell wells) (1 mM EGCG + hCoV-229E virus, co-incubated 1 minute, first experiment, dilution factor 10^4) | CPE test (virus replication in the cell wells) (first experiment, dilution factor 10^1, wells 1-10) | CPE test (virus replication in the cell wells) (first experiment, dilution factor 10^2, wells 1-10) | CPE test (virus replication in the cell wells) (first experiment, dilution factor 10^3, wells 1-10) | CPE test (virus replication in the cell wells) (first experiment, dilution factor 10^4, wells 1-10) | CPE test (virus replication in the cell wells) (second experiment, dilution factor 10^1, wells 1-10) | CPE test (virus replication in the cell wells) (second experiment, dilution factor 10^2, wells 1-10) | CPE test (virus replication in the cell wells) (second experiment, dilution factor 10^3, wells 1-10) | CPE test (virus replication in the cell wells) (second experiment, dilution factor 10^4, wells 1-10)
−: CPE test (virus replication in cell wells) (0.2 mM EGCG + virus, hCoV-229E co-incubated 1 minute, second experiment, dilution factor 10^6) | CPE test (virus replication in cell wells) (0.2 mM EGCG + virus, hCoV-229E co-incubated 1 minute, second experiment, dilution factor 10^7) | CPE test (virus replication in cell wells) (0.2 mM EGCG + virus, hCoV-229E co-incubated 1 minute, second experiment, dilution factor 10^8) | CPE test (virus replication in cell wells) (0.2 mM EGCG + virus, hCoV-229E co-incubated 1 minute, third experiment, dilution factor 10^7) | CPE test (virus replication in cell wells) (0.2 mM EGCG + virus, hCoV-229E co-incubated 1 minute, third experiment, dilution factor 10^8) | CPE test (virus replication in cell wells) (1 mM EGCG + hCoV-229E virus, co-incubated 1 minute, first experiment, dilution factor 10^6) | CPE test (virus replication in cell wells) (1 mM EGCG + hCoV-229E virus, co-incubated 1 minute, first experiment, dilution factor 10^7) | CPE test (virus replication in cell wells) (1 mM EGCG + hCoV-229E virus, co-incubated 1 minute, first experiment, dilution factor 10^8) | CPE test (virus replication in the cell wells) (first experiment, dilution factor 10^7, wells 1-10) | CPE test (virus replication in the cell wells) (first experiment, dilution factor 10^8, wells 1-10) | CPE test (virus replication in the cell wells) (second experiment, dilution factor 10^6, wells 1-10) | CPE test (virus replication in the cell wells) (second experiment, dilution factor 10^7, wells 1-10)
+ and −: CPE test (virus replication in cell wells) (0.2 mM EGCG + virus, hCoV-229E co-incubated 1 minute, second experiment, dilution factor 10^5) | CPE test (virus replication in cell wells) (0.2 mM EGCG + virus, hCoV-229E co-incubated 1 minute, third experiment, dilution factor 10^6) | CPE test (virus replication in cell wells) (1 mM EGCG + hCoV-229E virus, co-incubated 1 minute, first experiment, dilution factor 10^5) | CPE test (virus replication in the cell wells) (second experiment, dilution factor 10^5, wells 1-10)
31.46%: average inactivation efficiency against virus (0.2 mM EGCG, hCoV-229E virus, 1 minute)
− and +: CPE test (virus replication in cell wells) (0.2 mM EGCG + virus, hCoV-229E co-incubated 1 minute, third experiment, dilution factor 10^5) | CPE test (virus replication in the cell wells) (first experiment, dilution factor 10^5, wells 1-10) | CPE test (virus replication in the cell wells) (first experiment, dilution factor 10^6, wells 1-10)
